Among the data in US10745382B2 (BRISTOL-MYERS SQUIBB COMPANY, priority 2015, dated 2020) are IC50 values, retold here.

Like-named read-outs stand apart in the source and are kept apart here.

The test concerns the target T1, PD-1/PD-L1 (Homo sapiens, UniProt Q9NZQ7).
T1 construct: made in house; host or cells: HEK293T
The test is described as follows: PD-1/PD-L1 Homogenous Time-Resolved Fluorescence (HTRF) binding assay. Particulars: PD-L1-His 10 nM, PD-1-Ig 20 nM, read-out: Range or IC50. In outline: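 Compounds are tested for blocking the PD-1/PD-L1 interaction in dPBS supplemented with 0.1% BSA and 0.05% (v/v) Tween-20. Tagged proteins are detected with Eu-cryptate anti-Ig and APC anti-His at 1 and 20 nM final.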
On the technique in general: Time-resolved FRET reads energy transfer from a long-lived donor to a nearby acceptor.

T1 sequence (Q9NZQ7 with tags, fused parts or gaps): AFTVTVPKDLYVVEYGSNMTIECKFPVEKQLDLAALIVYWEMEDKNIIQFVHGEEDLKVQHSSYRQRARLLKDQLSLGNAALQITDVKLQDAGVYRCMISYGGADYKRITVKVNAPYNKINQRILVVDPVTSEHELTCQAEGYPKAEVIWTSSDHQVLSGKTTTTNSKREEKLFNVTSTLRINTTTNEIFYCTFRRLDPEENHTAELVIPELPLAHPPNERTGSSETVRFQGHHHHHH

In the case of `Cc1c(COc2cc(OCc3cncc(C#N)c3)c(CNC(C)(CO)CO)cc2Cl)cccc1-c1cccc(C(=O)N2CCOCC2)c1C` [Example 4053, 5-((4-chloro-2-(((1,3-dihydroxy-2-methylpropan-2-yl)amino)methyl)-5-((2,2′-dimethyl-3′-(morpholine-4-carbonyl)-[1,1′-biphenyl]-3-yl)methoxy)phenoxy)methyl)nicotinonitrile], the IC50 (usually the concentration that gives 50% inhibition) (value given as range class) was in the range of 10 to 100 nM.

Take `Cc1c(COc2cc(OCc3cncc(C#N)c3)c(CN3CCOC[C@H]3C(=O)O)cc2Cl)cccc1-c1cccc(C(=O)N2CCOCC2)c1C` [Example 4054, (S)-4-(5-chloro-2-((5-cyanopyridin-3-yl)methoxy)-4-((2,2′-dimethyl-3′-(morpholine-4-carbonyl)-[1,1′-biphenyl]-3-yl)methoxy)benzyl)morpholine-3-carboxylic Acid]: the IC50 (value given as range class) fell in the range of 100 to 2000 nM.

As for `Cc1c(COc2cc(OCc3cncc(C#N)c3)c(CN[C@@H](CO)C(=O)O)cc2Cl)cccc1-c1cccc(C(=O)N2CCOCC2)c1C` [Example 4055, (5-chloro-2-((5-cyanopyridin-3-yl)methoxy)-4-((2,2′-dimethyl-3′-(morpholine-4-carbonyl)-[1,1′-biphenyl]-3-yl)methoxy)benzyl)-L-serine], where the note is “value given as range class”, the IC50 lay within 10 to 100 nM.

In the case of `Cc1c(COc2cc(OCc3cncc(C#N)c3)c(CN[C@@H](CNC(=O)OC(C)(C)C)C(=O)O)cc2Cl)cccc1-c1cccc(C(=O)N2CCOCC2)c1C` [Example 4056, (S)-3-((tert-butoxycarbonyl)amino)-2-((5-chloro-2-((5-cyanopyridin-3-yl)methoxy)-4-((2,2′-dimethyl-3′-(morpholine-4-carbonyl)-[1,1′-biphenyl]-3-yl)methoxy)benzyl)amino)propanoic Acid], the IC50 (value given as range class) was 100 to 2000 nM.

Regarding `Cc1c(COc2cc(OCc3cncc(C#N)c3)c(CNC(CO)(CO)CO)cc2Cl)cccc1-c1cccc(C(=O)N2CCOCC2)c1C` [Example 4058, 5-((4-chloro-2-(((1,3-dihydroxy-2-(hydroxymethyl)propan-2-yl)amino)methyl)-5-((2,2′-dimethyl-3′-(morpholine-4-carbonyl)-[1,1′-biphenyl]-3-yl)methoxy)phenoxy)methyl)nicotinonitrile], for the setting “value given as range class”, the 50% inhibitory concentration (IC50) fell in the range of 10 to 100 nM.

As to `Cc1c(COc2cc(OCc3cncc(C#N)c3)c(CN[C@@H](CN)C(=O)O)cc2Cl)cccc1-c1cccc(C(=O)N2CCOCC2)c1C` [Example 4059, (S)-3-amino-2-((5-chloro-2-((5-cyanopyridin-3-yl)methoxy)-4-((2,2′-dimethyl-3′-(morpholine-4-carbonyl)-[1,1′-biphenyl]-3-yl)methoxy)benzyl)amino)propanoic Acid], the IC50 (value given as range class) is 100 to 2000 nM.

Consider `Cc1c(COc2cc(OCc3cncc(C#N)c3)c(CN3CCNC[C@H]3C(=O)O)cc2Cl)cccc1-c1cccc(C(=O)N2CCOCC2)c1C` [Example 4060, (S)-1-(5-chloro-2-((5-cyanopyridin-3-yl)methoxy)-4-((2,2′-dimethyl-3′-(morpholine-4-carbonyl)-[1,1′-biphenyl]-3-yl)methoxy)benzyl)piperazine-2-carboxylic Acid], for which, under “value given as range class”, the IC50 lay in the range of 100 to 2000 nM.

In the case of `Cc1c(CCCCN2CC[C@@H](O)C2)cccc1-c1cccc(COc2cc(OCc3cncc(C#N)c3)c(CN3CCCC[C@H]3C(=O)O)cc2Cl)c1C` [Example 4061, (S)-1-(5-chloro-2-((5-cyanopyridin-3-yl)methoxy)-4-((3′-(4-((R)-3-hydroxypyrrolidin-1-yl)butyl)-2,2′-dimethyl-[1,1′-biphenyl]-3-yl)methoxy)benzyl)piperidine-2-carboxylic Acid], the IC50 (value given as range class) was in the range of 0.21 to 10 nM.

For the compound `Cc1c(CCCCN2CC[C@@H](O)C2)cccc1-c1cccc(COc2cc(OCc3cncc(C#N)c3)c(CN3C[C@H](O)C[C@H]3C(=O)O)cc2Cl)c1C` [Example 4062, (2S,4R)-1-(5-chloro-2-((5-cyanopyridin-3-yl)methoxy)-4-((3′-(4-((R)-3-hydroxypyrrolidin-1-yl)butyl)-2,2′-dimethyl-[1,1′-biphenyl]-3-yl)methoxy)benzyl)-4-hydroxypyrrolidine-2-carboxylic Acid], for the setting “value given as range class”, the IC50 lay within 0.21 to 10 nM.

On to `Cc1c(CCCCN2CC[C@@H](O)C2)cccc1-c1cccc(COc2cc(OCc3cncc(C#N)c3)c(CN3C[C@@H](O)C[C@H]3C(=O)O)cc2Cl)c1C` [Example 4063, (2S,4S)-1-(5-chloro-2-((5-cyanopyridin-3-yl)methoxy)-4-((3′-(4-((R)-3-hydroxypyrrolidin-1-yl)butyl)-2,2′-dimethyl-[1,1′-biphenyl]-3-yl)methoxy)benzyl)-4-hydroxypyrrolidine-2-carboxylic Acid], for which, where the note is “value given as range class”, the IC50 lay in the range of 0.21 to 10 nM.

In the case of `Cc1c(CCCCN2CC[C@@H](O)C2)cccc1-c1cccc(COc2cc(OCc3cncc(C#N)c3)c(CNC(CO)CO)cc2Cl)c1C` [Example 4064, (R)-5-((4-chloro-2-(((1,3-dihydroxypropan-2-yl)amino)methyl)-5-((3′-(4-(3-hydroxypyrrolidin-1-yl)butyl)-2,2′-dimethyl-[1,1′-biphenyl]-3-yl)methoxy)phenoxy)methyl)nicotinonitrile], the IC50 (value given as range class) lay within 0.21 to 10 nM.

For `Cc1c(CCCCN2CC[C@@H](O)C2)cccc1-c1cccc(COc2cc(OCc3cncc(C#N)c3)c(CNC(C)(CO)CO)cc2Cl)c1C` [Example 4065, (R)-5-((4-chloro-2-(((1,3-dihydroxy-2-methylpropan-2-yl)amino)methyl)-5-((3′-(4-(3-hydroxypyrrolidin-1-yl)butyl)-2,2′-dimethyl-[1,1′-biphenyl]-3-yl)methoxy)phenoxy)methyl)nicotinonitrile], the IC50 (value given as range class) fell in the range of 0.21 to 10 nM.

For the compound `Cc1c(CCCCN2CC[C@@H](O)C2)cccc1-c1cccc(COc2cc(OCc3cncc(C#N)c3)c(CNC(CO)(CO)CO)cc2Cl)c1C` [Example 4066, (R)-5-((4-chloro-2-(((1,3-dihydroxy-2-(hydroxymethyl)propan-2-yl)amino)methyl)-5-((3′-(4-(3-hydroxypyrrolidin-1-yl)butyl)-2,2′-dimethyl-[1,1′-biphenyl]-3-yl)methoxy)phenoxy)methyl)nicotinonitrile], the IC50 (value given as range class) fell in the range of 0.21 to 10 nM.

For the compound `Cc1c(CCCCN2CC[C@@H](O)C2)cccc1-c1cccc(COc2cc(OCc3cncc(C#N)c3)c(CN[C@@H](CNC(=O)OC(C)(C)C)C(=O)O)cc2Cl)c1C` [Example 4067, (S)-3-((tert-butoxycarbonyl)amino)-2-((5-chloro-2-((5-cyanopyridin-3-yl)methoxy)-4-((3′-(4-((R)-3-hydroxypyrrolidin-1-yl)butyl)-2,2′-dimethyl-[1,1′-biphenyl]-3-yl)methoxy)benzyl)amino)propanoic Acid], the IC50 (value given as range class) lay in the range of 0.21 to 10 nM.

Take `Cc1c(CCCCN2CC[C@@H](O)C2)cccc1-c1cccc(COc2cc(OCc3cncc(C#N)c3)c(CN3CCN(C(=O)OC(C)(C)C)C[C@H]3C(=O)O)cc2Cl)c1C` [Example 4068, (S)-4-(tert-butoxycarbonyl)-1-(5-chloro-2-((5-cyanopyridin-3-yl)methoxy)-4-((3′-(4-((R)-3-hydroxypyrrolidin-1-yl)butyl)-2,2′-dimethyl-[1,1′-biphenyl]-3-yl)methoxy)benzyl)piperazine-2-carboxylic Acid]: the IC50 (value given as range class) lay within 0.21 to 10 nM.

As to `Cc1c(CCCCN2CC[C@@H](O)C2)cccc1-c1cccc(COc2cc(OCc3cncc(C#N)c3)c(CN[C@@H](CN)C(=O)O)cc2Cl)c1C` [Example 4069, (S)-3-amino-2-((5-chloro-2-((5-cyanopyridin-3-yl)methoxy)-4-((3′-(4-((R)-3-hydroxypyrrolidin-1-yl)butyl)-2,2′-dimethyl-[1,1′-biphenyl]-3-yl)methoxy)benzyl)amino)propanoic Acid], the IC50 (value given as range class) lay in the range of 0.21 to 10 nM.

Consider `Cc1c(CCCCN2CC[C@@H](O)C2)cccc1-c1cccc(COc2cc(OCc3cncc(C#N)c3)c(CN3CCNC[C@H]3C(=O)O)cc2Cl)c1C` [Example 4070, (S)-1-(5-chloro-2-((5-cyanopyridin-3-yl)methoxy)-4-((3′-(4-((R)-3-hydroxypyrrolidin-1-yl)butyl)-2,2′-dimethyl-[1,1′-biphenyl]-3-yl)methoxy)benzyl)piperazine-2-carboxylic Acid], for which the IC50 (value given as range class) lay within 0.21 to 10 nM.

`Cc1c(COc2cc(OCc3cncc(C#N)c3)c(CN3CCCC[C@H]3C(=O)O)cc2Cl)cccc1-c1cccc(CN(C)CCN2CCS(=O)(=O)CC2)c1C` [Example 4079, (S)-1-(5-chloro-2-((5-cyanopyridin-3-yl)methoxy)-4-((3′-(((2-(1,1-dioxidothiomorpholino)ethyl)(methyl)amino)methyl)-2,2′-dimethyl-[1,1′-biphenyl]-3-yl)methoxy)benzyl)piperidine-2-carboxylic Acid]: the IC50 (numeric IC50) was 73 nM.

With `Cc1c(COc2cc(OCc3cncc(C#N)c3)c(CNC(CO)CO)cc2Cl)cccc1-c1cccc(CN(C)CCN2CCS(=O)(=O)CC2)c1C` [Example 4080, 5-((4-chloro-2-(((1,3-dihydroxypropan-2-yl)amino)methyl)-5-((3′-(((2-(1,1-dioxidothiomorpholino)ethyl)(methyl)amino)methyl)-2,2′-dimethyl-[1,1′-biphenyl]-3-yl)methoxy)phenoxy)methyl)nicotinonitrile], the IC50 (value given as range class) was in the range of 0.21 to 10 nM.

With `Cc1c(COc2cc(OCc3cncc(C#N)c3)c(CN[C@@](C)(CO)C(=O)O)cc2Cl)cccc1-c1cccc(CN(C)CCN2CCS(=O)(=O)CC2)c1C` [Example 4081, (S)-2-((5-chloro-2-((5-cyanopyridin-3-yl)methoxy)-4-((3′-(((2-(1,1-dioxidothiomorpholino)ethyl)(methyl)amino)methyl)-2,2′-dimethyl-[1,1′-biphenyl]-3-yl)methoxy)benzyl)amino)-3-hydroxy-2-methylpropanoic Acid], for the setting “value given as range class”, the IC50 lay within 10 to 100 nM.
